≈ marks a conversion by molar mass, not a printed value.

The source of these data is patent US8158165B2, “Preventative treatment and remission of allergic diseases” (CSIR, priority 2006, dated 2012).

The subject of experiment [1] is NF-κB transcription factor. Description: Transcription Response, NF-κB (Jurkat lacZ reporter). It is filed as cell-based, human. The text has this:
The assay is described in Lenardo M J, Baltimaore D. Lenardo M J, Baltimaore D, NF-κB: A pleiotropic mediator of inducible and tissue specific gene control. Cell. 58: 227-229, 1989, the contents of which are incorporated herein by way of reference.
Human T lymphocytic Jurkat cells, transfected with a response element-lacZ reporter in which transcription of the β-galactosidase gene is directed by the binding site for the NF-κB transcription factor, are used. Test compound and/or vehicle are incubated with the cells (1.5×10^6/ml) in the presence of 0.5 μM A23187 and 50 ng/ml PMA (phorbol 12-myristate 13-acetate) in RPMI-1640 pH 7.4 at 37° C. for 4 hours. Test compound-induced β-galactosidase activity is determined by the conversion of FDG (fluorescein di-β-D-galactopyranoside) to fluorescein. Fluorescence intensity is read on SpectroFluor Plus plate reader. […]

Another experiment deals with IL-5. In words: Mediator Release, IL-5 (ConA-stimulated PBMNL cells). It is filed as cell-based, human. The method, then:
As regards the human IL-5 mediator release text, the test compound is incubated with Concanavalin A (ConA) (10 μg/ml)-stimulated human peripheral blood mononuclear leukocyte (PBMNL) cells in growth medium RPMI-1640 (pH 7.4) overnight at 37° C. in an incubator. The IL-5 cytokine production levels in the conditioned medium are quantified using a sandwich ELISA kit. […] These same concentrations are concurrently applied to a separate group of treated cells and evaluated for possible compound-induced cytotoxicity only if significant inhibition of release is observed. Dexamethasone is used as standard reference agent.

Experiment [2] has as its target T1, human glucocorticoid receptors (Homo sapiens, UniProt P04150).
T1 construct: endogenous in cells; host or cells: HeLa S3 (human cervix carcinoma) cells
T1 sequence (P04150 1-777): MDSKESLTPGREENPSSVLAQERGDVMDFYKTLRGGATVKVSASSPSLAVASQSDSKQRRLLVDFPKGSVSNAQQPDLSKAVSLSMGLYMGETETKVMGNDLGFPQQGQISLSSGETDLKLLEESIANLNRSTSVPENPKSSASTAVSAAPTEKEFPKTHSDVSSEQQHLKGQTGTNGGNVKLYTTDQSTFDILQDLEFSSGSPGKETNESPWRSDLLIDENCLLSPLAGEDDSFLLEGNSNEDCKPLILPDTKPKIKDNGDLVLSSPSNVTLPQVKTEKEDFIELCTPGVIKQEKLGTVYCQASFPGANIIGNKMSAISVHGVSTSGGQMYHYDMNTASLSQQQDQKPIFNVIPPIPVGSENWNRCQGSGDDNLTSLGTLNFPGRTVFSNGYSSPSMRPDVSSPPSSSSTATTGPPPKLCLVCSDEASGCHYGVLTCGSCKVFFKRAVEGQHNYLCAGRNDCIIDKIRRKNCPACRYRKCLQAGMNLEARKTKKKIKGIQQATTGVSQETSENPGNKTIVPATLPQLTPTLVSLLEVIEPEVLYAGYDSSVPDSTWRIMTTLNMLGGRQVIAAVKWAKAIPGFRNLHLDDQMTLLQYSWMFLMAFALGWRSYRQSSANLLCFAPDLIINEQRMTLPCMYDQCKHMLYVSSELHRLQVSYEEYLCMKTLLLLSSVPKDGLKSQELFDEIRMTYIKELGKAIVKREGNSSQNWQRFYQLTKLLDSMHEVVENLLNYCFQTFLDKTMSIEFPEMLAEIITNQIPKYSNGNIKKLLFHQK
Description: glucocorticoid receptor (GR) binding assay, [3H]Dexamethasone, HeLa S3 cells. The text has this: Biochemical assay results as presented herein are reflected as the percent inhibition of specific binding or activity of a compound. The assay is described in Cidlowski, J. A. and Cidlowski, N. B., Regulation of glucocorticoid receptors by glucocorticoids in cultured HeLa S3 cells. Endocrinology 109: 1975-1982, 1981, the contents of which are incorporated herein by way of reference. This assay specifically measures the ability of active glucocorticoids in glucocorticoid receptor downregulation.
This assay measures binding of [^3H]Dexamethasone to human glucocorticoid receptors. HeLa S3 cells are suspended in modified HEPES buffer, pH 7.2, using standard techniques.
The cells (1×10^6) are incubated with 6 nM [^3H]Dexamethasone for 120 minutes at 25° C. Non-specific binding is estimated in the presence of 20 μM Dexamethasone. Membranes are filtered and washed three times and the filters are counted to determine [^3H]Dexamethasone specifically bound. Compounds are screened at 10 μM for activity.

In another experiment the test system is Phosphodiesterase PDE4. Description: phosphodiesterase PDE4 enzyme assay. It is filed as biochemical, human. As to conditions: 100 μg/ml. The method, then: Based on the results shown in Table 6, it follows that the combined fraction (WG-I-5AB+WG-I-5C) is effective in binding to the glucocorticoid receptor (GR) site. […] This inhibitory effect implies that the combined fraction (WG-I-5AB+WG-I-5C) has a bronchodilatory effect. For the PDE4 test, PDE4 which has been partially purified from human U-937 pronocytic cells is used. The test compound and/or vehicle is incubated with 0.2 μg enzyme and 1 μM cAMP containing 0.01 μM [^3H]cAMP in Tris buffer pH 7.5 for 20 minutes at 30° C. The reaction is terminated by boiling for 2 minutes and the resulting AMP is converted to adenosine by addition of 10 mg/ml snake venom necleotidase and further incubation at 30° C. for 10 minutes. Unhydrolyzed cAMP is bound to AGI-X2 resin, and remaining [^3H]adenosine in the aqueous phase is quantified by scintillation counting. Compounds are screened at 100 μM. IBMX (3-isobutyl-1-methylxanthine) is used as standard reference agent.

In a further experiment the test system is Lipoxygenase 5-LO. Description: 5-lipoxygenase enzyme assay (5-LO). As to conditions: 100 μg/ml. It is filed as biochemical, human. On the procedure: For the 5-LO test a crude 5-lipoxygenase enzyme preparation from rat basophilic leukemia cells (RBL-1) is used. The test compound is pre-incubated with the enzyme for 5 minutes in Tris buffer pH 7.2 at room temperature. The reaction is initiated by addition of 15 μM arachidonic acid as substrate and run for an additional 8 minutes after which the reaction is terminated by addition of 70 mM citric acid and levels of 5-HETE are determined by radioimmune assay. […] NDGA (nordihydroguaretic acid) is used as standard reference agent.

As for `Cc1coc2c1C[C@H]1[C@H](C)C=CC(=O)[C@]1(C)C2` (relative stereo) [compound 1, 4,4a,5,9-tetrahydro-3,5,8a-trimethylnaptho[2,3-b]furan-8-one], the “% RESPONSE Ant, Transcription Response, NF-κB” value is reported as 0% in experiment [1] (0.1 μM); 7% in experiment [1] (1 μM); 27% in experiment [1] (10 μM); 5% in experiment [1] (10 μM, fifth (last) step of the series); 113% in experiment [1] (100 μM); over 100% in experiment [1] (100 μM, listed as compound of formula 1). Moreover, the IC50 (in general, the point on the concentration scale where inhibition reaches its midpoint) in experiment [1] (Homo sapiens, Jurkat, read-out: IC50 inhibition of NF-κB transcription factor) amounted to 15.6 µg/mL (≈ 67.7 µM); with IL-5 (Homo sapiens, as worded, read-out: IC50 mediator release Interleukin-5 (IL-5) inhibition assay), 16.1 µM; in experiment [2] it was 50.3 µM. The “ANT. Mediator Release, IL-5” value worked out at 17% with IL-5 (10 nM); 18% in the experiment with IL-5 (0.1 μM); 25% in the experiment on IL-5 (1 μM); 36% in the experiment on IL-5 (10 μM); 93% in the experiment with IL-5 (100 μM); 93% in the experiment with IL-5 (100 μg/ml (Table 13)). For the same molecule, the EC50 (as a rule, the concentration at which the effect is half-maximal) in the experiment with IL-5 (Homo sapiens) came to 16.1 µM. Also, the affinity in experiment [2] corresponds to a Ki of 22.8 µM. The inhibition (commonly the relative decrease from the control value, in per cent) at 100 µM in experiment [2] (100 μM) came to 70%. For the same molecule, the inhibition at 100 µg/mL in experiment [2] (100 μg/ml) amounted to 104%. The “nH Glucocorticoid” value in experiment [2] (Hill coefficient) is given as 1.4. Further, the “Inhibition (%) Phosphodiesterase PDE4” value with Phosphodiesterase PDE4 stood at 35%. In addition, the “Inhibition (%) Lipoxygenase 5-LO” value with Lipoxygenase 5-LO is 99%.
